{"source": "patent US5627169A", "about": "“Selective antagonists for GABArho receptor” (The Regents of The University of California, priority 1994, dated 1997)", "key": {"[1]": {"target": "GABArho receptors expressed by bovine retina RNA", "assay": "Electrical recording in Xenopus oocytes expressing GABArho receptors from bovine retina RNA", "format": "cell-based", "excerpt": "(§1) Electrical recording techniques and the Xenopus oocyte expression system were used to determine the sensitivity of a variety of commonly used GABAA and GABAB receptor ligands to GABArho receptors expressed by bovine retina RNA."}, "[2]": {"tested_on": "GABAA receptors expressed by rat brain mRNA", "assay": "Xenopus oocytes expressing GABAA receptors from rat brain mRNA", "format": "cell-based"}, "[3]": {"tested_on": "GABAA receptors expressed by bovine retina mRNA", "assay": "Xenopus oocytes expressing GABAA receptors from bovine retina mRNA", "format": "cell-based", "excerpt": "as §1\nWhen a methylphosphinic acid substituent was used to replace the carboxyl group of GABA in this compound, affects at GABAA receptors were prohibited, but relatively strong interactions at closed channel binding sites on GABArho receptors were detected."}, "[4]": {"target": "T1, cloned GABArho receptors (Homo sapiens, UniProt P24046)", "T1 construct": "expressed in transfected cells; host or cells: Xenopus oocytes injected with cloned receptor RNA", "T1 sequence (P24046 22-479)": "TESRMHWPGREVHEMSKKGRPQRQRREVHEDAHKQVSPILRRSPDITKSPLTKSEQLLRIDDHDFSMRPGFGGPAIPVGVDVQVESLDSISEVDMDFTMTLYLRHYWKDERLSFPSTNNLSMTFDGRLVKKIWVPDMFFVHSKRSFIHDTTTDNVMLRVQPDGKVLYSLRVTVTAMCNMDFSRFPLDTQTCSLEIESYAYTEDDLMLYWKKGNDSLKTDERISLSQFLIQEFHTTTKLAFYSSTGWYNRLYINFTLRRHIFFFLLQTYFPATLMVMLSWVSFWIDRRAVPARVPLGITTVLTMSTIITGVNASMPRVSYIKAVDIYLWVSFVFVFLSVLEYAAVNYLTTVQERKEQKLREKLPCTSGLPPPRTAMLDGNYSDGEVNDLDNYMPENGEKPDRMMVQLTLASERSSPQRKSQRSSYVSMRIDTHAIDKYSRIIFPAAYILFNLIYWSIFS", "assay": "Membrane currents in Xenopus oocytes expressing cloned GABArho receptors", "format": "cell-based", "protocol": "(§2) To test the new compounds synthesized, Xenopus oocytes were injected with the cloned GABA RNA and other oocytes were injected with native poly (A)^+ RNAs extracted from the rat cerebral cortex or spinal cord, bovine brain, rabbit brain, chick brain or optic lobe. […] The various concentrations of compound 7 were applied together with 10^-5M GABA.\nTo study the time to onset of antagonistic action by TPMPA, a timed trial utilizing pulsed application of GABA (10^-5 M) and TPMPA (8×10^-5 M) was begun. At the first marker pulse of 50 nA, GABA administration of GABA was begun. TPMPA was applied between the 2nd and 3rd markers, and normal Ringers solution (without GABA) was applied at the 4th marker pulse."}, "[5]": {"tested_on": "chick brain GABAA receptors", "assay": "Membrane currents in Xenopus oocyte expressing chick brain GABAA receptors", "format": "cell-based", "settings": "various concentrations applied together with 10^-5 M GABA", "protocol": "as §2"}, "[6]": {"tested_on": "GABAA receptors expressed by native mRNAs from the brain", "assay": "Xenopus oocytes expressing GABAA receptors from native brain mRNAs of different animal species", "format": "cell-based", "protocol": "as §2"}, "[7]": {"tested_on": "GABArho receptors", "settings": "cited from earlier work"}, "[8]": {"settings": "pulsed application of GABA 10^-5 M and TPMPA 8×10^-5 M"}}, "data": [{"smiles": "CP(=O)(O)CCCN", "note": "[3-aminopropyl(methyl-)phosphinic acid]", "values": [{"measurement": "Ki", "setting": "[1]; read-out: Ki as competitive antagonist at GABArho receptors", "value": 800, "unit": "nM"}, {"measurement": "effects on GABAA receptors", "setting": "[2]", "value": "no detectable effects"}, {"measurement": "effects on GABAA receptors", "setting": "[3]", "value": "no detectable effects"}]}, {"smiles": "CP(=O)(O)C1=CCNCC1", "note": "[Compound 7a, 1,2,5,6-tetrahydropyridine-4-methylphosphinic acid]", "values": [{"measurement": "antagonism of GABArho receptors", "setting": "[1]; expressed by native bovine retina mRNA", "value": "potent and selective antagonist"}, {"measurement": "effect on membrane current response to GABA", "setting": "[4]; 8×10^-5 M compound applied together with 10^-5 M GABA", "value": "abolishes almost completely the response to GABA"}, {"measurement": "antagonism of GABArho receptors", "setting": "[4]; expressed by cloned GABArho receptor RNA", "value": "potent and selective antagonist"}, {"measurement": "onset of antagonistic action", "setting": "[4]; [8]", "value": "rapid in onset"}, {"measurement": "recovery from antagonistic action", "setting": "[4]; [8]", "value": "recovery was also rapid"}, {"measurement": "attenuation of currents elicited by activation of GABAA receptors", "setting": "[5]", "value": "not greatly attenuated until quite high concentration were used"}, {"measurement": "blockage of GABAA receptors compared with GABArho receptors", "setting": "[6]", "value": "blockage was less than that of GABArho receptors"}]}, {"smiles": "O=C(O)C1=CCNCC1", "note": "[isoguvacine]", "values": [{"measurement": "action on GABArho receptors", "setting": "[1]", "value": "either as weak partial agonists or as competitive antagonists"}]}, {"smiles": "Oc1noc2c1CCNC2", "note": "[THIP, 4,5,6,7-tetrahydroisoxazolo-[5,4-c]-pyridin-3-ol]", "values": [{"measurement": "action on GABArho receptors", "setting": "[1]", "value": "either as weak partial agonists or as competitive antagonists"}]}, {"smiles": "O=C(O)C1CCNCC1", "note": "[isonipecotic acid]", "values": [{"measurement": "action on GABArho receptors", "setting": "[1]", "value": "either as weak partial agonists or as competitive antagonists"}]}, {"smiles": "CN1CCc2cc3c(cc2[C@H]1[C@@H]1OC(=O)c2c1ccc1c2OCO1)OCO3", "note": "[bicuculline]", "values": [{"measurement": "sensitivity of GABArho receptors", "setting": "[7]", "value": "insensitive"}]}, {"smiles": "NCC(CC(=O)O)c1ccc(Cl)cc1", "note": "(stereo not drawn) [baclofen]", "values": [{"measurement": "sensitivity of GABArho receptors", "setting": "[7]", "value": "insensitive"}]}]}
